Test results: ChEMBL document CHEMBL5727940, “Substituted piperazines as selective HDAC1,2 inhibitors” (2020)

Biological target: hERG (KCNH2) (Homo sapiens, UniProt Q12809)
Assay: hERG inhibition assays: For hERG inhibition assays, the cells used were HEK293 cells stably transfected with hERG (cell line obtained from Cytocentrics Inc. 3463 Magic Drive San Antonio, Tex. 78229). Composition of External Solution: NaCl, 137 mM; KCl, 4 mM; MgCl2, 1.0 mM; CaCl2, 1.8 mM; HEPES 10 mM; Dextrose 11 mM; Adjusted to a pH of 7.4 with NaOH. Composition of Internal Solution: KCl, 130.0 mM
Conditions: pH 7.4

Chain of hERG (KCNH2) (Q12809 whole entry): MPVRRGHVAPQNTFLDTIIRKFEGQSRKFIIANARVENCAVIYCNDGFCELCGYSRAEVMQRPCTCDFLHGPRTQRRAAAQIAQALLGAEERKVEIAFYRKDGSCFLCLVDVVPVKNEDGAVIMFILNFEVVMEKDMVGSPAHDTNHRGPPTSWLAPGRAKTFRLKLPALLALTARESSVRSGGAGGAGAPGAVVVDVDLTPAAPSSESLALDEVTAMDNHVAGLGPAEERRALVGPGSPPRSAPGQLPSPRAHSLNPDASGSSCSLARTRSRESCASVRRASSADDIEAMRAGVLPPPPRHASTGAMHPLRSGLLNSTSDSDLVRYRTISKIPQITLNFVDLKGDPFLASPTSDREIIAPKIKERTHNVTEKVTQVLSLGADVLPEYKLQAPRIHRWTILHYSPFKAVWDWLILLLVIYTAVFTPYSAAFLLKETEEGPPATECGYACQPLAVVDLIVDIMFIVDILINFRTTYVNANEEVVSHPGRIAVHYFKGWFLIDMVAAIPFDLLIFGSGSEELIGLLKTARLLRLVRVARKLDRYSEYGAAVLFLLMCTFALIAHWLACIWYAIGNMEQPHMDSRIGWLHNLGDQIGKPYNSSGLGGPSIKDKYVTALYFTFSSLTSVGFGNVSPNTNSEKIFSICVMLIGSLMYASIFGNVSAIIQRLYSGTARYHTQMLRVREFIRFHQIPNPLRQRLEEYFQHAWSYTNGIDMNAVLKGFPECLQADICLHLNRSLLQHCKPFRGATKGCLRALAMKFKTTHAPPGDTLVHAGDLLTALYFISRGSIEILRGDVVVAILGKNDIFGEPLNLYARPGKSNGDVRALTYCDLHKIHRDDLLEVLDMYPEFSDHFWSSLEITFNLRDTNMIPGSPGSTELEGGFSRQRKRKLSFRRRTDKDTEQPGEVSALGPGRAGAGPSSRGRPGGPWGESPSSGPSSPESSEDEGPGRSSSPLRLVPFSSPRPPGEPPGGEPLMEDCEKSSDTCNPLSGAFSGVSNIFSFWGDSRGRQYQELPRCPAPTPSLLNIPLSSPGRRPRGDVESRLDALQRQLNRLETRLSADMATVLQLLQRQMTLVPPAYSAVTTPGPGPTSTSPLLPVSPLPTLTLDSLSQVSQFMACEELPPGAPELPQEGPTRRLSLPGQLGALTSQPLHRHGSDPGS

Nc1ccc(-c2cccs2)cc1NC(=O)c1ncc(N2CCNCC2)s1
IC50: 3.6 µM
